Values joined by “and” are separate entries in the source; they are usually repeats but may differ in a detail not shown here. Identical values can stand only once. Marks after values point to notes of the source that are not given here.
Tests used:
[1] = system: clinical isolates of Zygomycetes and molds; assay: In vitro synergy with azoles; format: cell-based; settings: majority of clinical isolates
E. floccosum = assay: Checkerboard combination testing of compound 8 with antifungals, FIC (Example 1); format: cell-based, Epidermophyton floccosum; settings: for Additivity # isolates / Additivity isolates (%): 0.5≦FIC≦1.0
Experimental: (§1) This example describes the in vitro activity of combinations of compounds according to the present invention and antifungal agents against a collection of dermatophytic fungal pathogens. Antifungal susceptibility testing was adapted from the CLSI M38-A broth microdilution method for dermatophytes (NCCLS-M38-A2 2008). Combination testing was performed by checkerboard method (with compound 8 in combination with fluconazole, itraconazole or terbinafine). A total of 30 isolates of 5 different fungal species were tested in the combination test: 6 isolates each of Trichophyton tonsurans, Trichophyton rubrum, Epidermophyton floccosum, Trichophyton mentagrophytes and Microsporum canis. Clinical isolates were obtained by the Laboratory of Dr. M. Ghannoum at Case Western University.
(§2) Synergy was assessed using the fractional inhibitory concentration (FIC), an interaction coefficient, with the following definitions:
(§3) The fold reduction of the itraconazole minimum inhibitory concentration (MIC) was also evaluated.

T. mentagrophytes = assay: MIC testing, modified CLSI M38-A2 for dermatophytes (Example 2); format: cell-based
Experimental: MIC testing was performed according to the modification of the CLSI M38-A2 standard for dermatophytes developed at the Center (CLSI. Reference Method for Broth Dilution Antifungal Susceptibility Testing of Filamentous Fungi; Approved Standard-Second Edition. CLSI document M38-A2 [ISBN 1-56238-668-9]. CLSI, 940 West Valley Road, Suite 1400, Wayne, Pa. 19087-1898 USA, 2008; Ghannoum M A, et al. Intra- and Interlaboratory Study of a Method for Testing the Antifungal Susceptibilities of Dermatophytes. 2004 J Clin Microbiol 42:(7): 2977-2979). Compound 8 and fluconazole were tested in combination using a checkerboard microdilution method. The interaction between Compound 8 and fluconazole was determined by FIC Index, or Fractional Inhibitory Concentration Index, which assigns a numerical value to the interaction of the two antifungals.

T. tonsurans = assay: Checkerboard combination testing of compound 8 with antifungals, FIC (Example 1); format: cell-based, Trichophyton tonsurans; settings: for Additivity # isolates / Additivity isolates (%): 0.5≦FIC≦1.0; for No Interaction # isolates: 1.0<FIC≦4.0; for Synergy # isolates / Synergy isolates (%): FIC<0.5
Experimental: as §1, §2, §3

[2] = Compound 8 in combination with fluconazole, n=6 isolates
[3] = Compound 8 in combination with fluconazole, 1.0<FIC≦4.0, n=6 isolates
[4] = Compound 8 in combination with itraconazole, n=6 isolates
[5] = Compound 8 in combination with itraconazole, FIC<0.5, n=6 isolates
[6] = one value per clinical isolate (Strain # 1-6)
[7] = Trichophyton mentagrophytes, n = 5 strains
[8] = Compound 8 in combination with itraconazole, N=5 isolates

O=C(Cc1ccc(CCCCc2ccccc2)cc1)NO [Compound 8]
In vitro interaction with azoles [1]: synergy
Additivity # isolates (E. floccosum; [2]): 4
Additivity isolates (%) (E. floccosum; [2]): (67%)
No Interaction # isolates (E. floccosum; [3]): 2
No Interaction isolates (%) (E. floccosum; [3]): (33%)
Synergy # isolates (E. floccosum; Compound 8 in combination with fluconazole, FIC<0.5, n=6 isolates): 0
Additivity # isolates (E. floccosum; [4]): 2
Additivity isolates (%) (E. floccosum; [4]): (33%)
No Interaction # isolates (E. floccosum; Compound 8 in combination with itraconazole, 1.0<FIC≦4.0, n=6 isolates): 0
Synergy # isolates (E. floccosum; [5]): 4
Synergy isolates (%) (E. floccosum; [5]): (67%)
Fold Reduction of Itraconazole MIC by Cpd 8 (E. floccosum; [6]): 8x and 4x and 7.5x
MIC (T. mentagrophytes; Trichophyton mentagrophytes, drug alone, one value per strain (MRL # in c0), read-out: Individual MIC): 1 mg/L
MIC50 (T. mentagrophytes; [7]): 1 mg/L
MIC90 (T. mentagrophytes; [7]): 1 mg/L
Antifungal activity as compared with fluconazole (T. mentagrophytes; all strains tested): more potent antifungal activity as compared with fluconazole
MIC Range (T. mentagrophytes; n = 5 strains): 1.0 mg/L
Additivity # isolates (T. tonsurans; [2]): 1
Additivity isolates (%) (T. tonsurans; [2]): (17%)
No Interaction # isolates (T. tonsurans; [2]): 0
Synergy # isolates (T. tonsurans; [2]): 5
Synergy isolates (%) (T. tonsurans; [2]): (83%)
Additivity # isolates (T. tonsurans; [8]): 4
Additivity isolates (%) (T. tonsurans; [8]): (80%)*
No Interaction # isolates (T. tonsurans; [8]): 0
Synergy # isolates (T. tonsurans; [8]): 1
Synergy isolates (%) (T. tonsurans; [8]): (20%)*
Fold Reduction of Itraconazole MIC by Cpd 8 (T. tonsurans; [6]): 2x and 4x
